The record followed here is patent US7772271B2 (priority 2004, dated 2010).

On to `CCn1c(-c2ccc(NS(=O)(=O)CC)cc2)c(C#N)c2ccc(C(=O)N3CCCC3)cc21` [Compound 1363], for which the melting point fell in the range of 168 to 171 °C.
Under `CC(C)OC(=O)Nc1ccc(-c2c(C#N)c3ccc(O[C@@H]4CCOC4)cc3n2C2CCC2)cc1` [Compound 2638] stands 196 to 197 °C; under `N#Cc1c(-c2ccc(NC(=O)NC3CCC3)cc2)n(C2CC2)c2cc(N3CCOCC3)ccc12` [Compound 2858], 230 to 232 °C; under `CCOc1ccc2c(C#N)c(-c3ccc(NC(=O)O[C@@H](C)c4ccncc4)cc3)n(C3CCC3)c2c1` [Compound 2706], 180 to 183 °C.
Regarding `Cc1ccnc(Oc2ccc3c(C#N)c(-c4ccc(Nc5cc(C)nn5C)cc4)n(C4CCC4)c3c2)n1` [Compound 3287], the melting point is 166 to 168 °C.
With `CC(C)OC(=O)Nc1ccc(-c2c(C#N)c3ccc(OC4COCOC4)cc3n2C2CCC2)cc1` [Compound 2894] the figure was 208 to 210 °C.
In turn, `N#Cc1c(-c2ccc(NC(=O)OC(C(F)(F)F)C(F)(F)F)cc2)n(C2CCC2)c2cc(OCC3OCCO3)ccc12` [Compound 2657] registered a melting point of 202 to 205 °C.
As to `CC(C)OC(=O)Nc1ccc(-c2c(C#N)c3ccc(OC4CCS(=O)(=O)CC4)cc3n2C(C)C)cc1` [Compound 3236], the melting point was 173 to 190 °C.
`CCCS(=O)(=O)Nc1ccc(-c2c(C#N)c3ccc(OCCCO)cc3n2C2CCC2)cc1` [Compound 1450] returned a melting point of 162 to 163 °C.
With `N#Cc1c(-c2ccc(N3CCCCS3(=O)=O)cc2)n(C2CC2)c2cc(Oc3ncccn3)ccc12` [Compound 3216] the figure was 251 to 256 °C; with `N#Cc1c(-c2ccc(Nc3nc(C(F)(F)F)cs3)cc2)n(C2CCC2)c2cc(OCCF)ccc12` [Compound 3207], 116 to 118 °C.
`CCCS(=O)(=O)Nc1ccc(-c2c(C#N)c3ccc(OCCO)cc3n2C2CCC2)cc1` [Compound 1451] came in with a melting point of 163 to 164 °C.
Consider `C[C@@H](OC(=O)Nc1ccc(-c2c(C#N)c3ccc(-c4ccnn4C)cc3n2C2CCC2)cc1)C1CC1` [Compound 3046], for which the melting point lay within 195 to 197 °C.
`CCN(CC)C(=O)Oc1ccc(-c2c(C#N)c3ccc(OC)cc3n2CC)cc1` [Compound 1348] came in with a melting point of 134.2 to 139.5 °C.
As for `N#Cc1c(-c2ccc(NC(=O)NC3CCC3)cc2)n(CC2CC2)c2cc(N3CCOCC3)ccc12` [Compound 2876], the melting point is 170 to 230 °C.
For the compound `COCCOc1ccc2c(C#N)c(-c3ccc(NC(=O)OC4CCOC4)cc3)n(C(C)C)c2c1` (stereo not drawn) [Compound 2610], the melting point lay in the range of 181 to 183 °C.
With `CCS(=O)(=O)Nc1ccc(-c2c(C#N)c3ccc(OC4CCOCC4)cc3n2C2CC2)cc1` [Compound 2912] the figure was 212 to 214 °C; with `N#Cc1c(-c2ccc(Nc3nc(-c4ccc(F)cc4)cs3)cc2)n(C2CCC2)c2cc(OC3CCOCC3)ccc12` [Compound 3153], 269 to 271 °C.
Compound `COCCN(C)C(=O)c1ccc2c(C#N)c(-c3ccc(NC(=O)OC(C)C)cc3)n(C3CCC3)c2c1` [Compound 2659] yielded a melting point of 102 to 105 °C.
On to `COc1ccc(Nc2ccc(-c3c(C#N)c4ccc(OC5CCOCC5)cc4n3C3CCC3)cc2)cc1C` [Compound 3159], for which the melting point fell in the range of 195 to 201 °C.
Regarding `N#Cc1c(-c2ccc(N3CCCS3(=O)=O)cc2)n(C2CCC2)c2cc(OC3CCOCC3)ccc12` [Compound 2749], the melting point was in the range of 224 to 226 °C.
Under `CCCS(=O)(=O)Nc1ccc(-c2c(C#N)c3ccc(Oc4nccnc4Cl)cc3n2C2CCC2)cc1` [Compound 2930] stands 227 to 229 °C; under `N#Cc1c(-c2ccc(NC(=O)OCc3ccccc3)cc2)n(C2CCC2)c2ccc(OCCCn3ccnc3)cc12` [Compound 2726], 229 to 231 °C; under `CC(C)n1c(-c2ccc(NS(=O)(=O)Cc3ccc(C(F)(F)F)cc3)cc2)c(C#N)c2ccc(OC(F)F)cc21` [Compound 3178], 224 to 225 °C.
Under `CN(C)/C=N/c1ccc(-c2c(C#N)c3ccc(Oc4ncccn4)cc3n2C2CCC2)cc1Cl` [Compound 3300] stands 215 to 216 °C; under `N#Cc1c(-c2ccc(Nc3ccccn3)cc2)n(C2CCC2)c2cc(OC3CCOCC3)ccc12` [Compound 3163], 211 to 212 °C.
In the case of `N#Cc1c(-c2cnc(NC3CCCCC3)nc2)n(C2CCC2)c2cc(Oc3ncccn3)ccc12` [Compound 3331], the melting point was in the range of 217 to 218 °C.
On to `CC(OC(=O)Nc1ccc(-c2c(C#N)c3ccc(OC4CCOC4)cc3n2C2CC2)cc1)c1ccccc1` (stereo not drawn) [Compound 1445], for which the melting point fell in the range of 112 to 115 °C.
Regarding `CCSc1ccc2c(C#N)c(-c3ccc(NC(=O)OC(C)C)cc3)n(C3CCC3)c2c1` [Compound 2713], the melting point lay within 150 to 152 °C.
For the compound `Cc1ccnc(Oc2ccc3c(C#N)c(-c4ccc(NS(=O)(=O)N[C@@H](C)C5CC5)cc4)n(C4CCC4)c3c2)n1` [Compound 3019], the melting point lay within 227 to 229 °C.
The compound `CC(C)NC(=S)Nc1ccc(-c2c(C#N)c3ccc(OC4CCOCC4)cc3n2C2CCC2)cc1` [Compound 3158] displayed a melting point of 129 to 130 °C.
On to `Cc1csc(Nc2ccc(-c3c(C#N)c4ccc(Oc5ncccc5F)cc4n3C3CC3)cc2)n1` [Compound 3270], for which the melting point fell in the range of 193 to 195 °C.
Turning to `CCOc1ccc2c(C#N)c(-c3ccc(NC(=O)NCCCOC)cc3)n(C3CCC3)c2c1` [Compound 1409], the melting point was in the range of 152 to 155 °C.
Take `CS(=O)(=O)Nc1ccc(-c2c(C#N)c3ccc(OC4CCOCC4)cc3n2C2CC2)cc1` [Compound 2911]: the melting point lay within 205 to 207 °C.
As for `CC(C)n1c(-c2ccc(NC(=O)O[C@H](C)C3CC3)cc2)c(C#N)c2ccc(O[C@@H]3CCOC3)cc21` [Compound 2743], the melting point was in the range of 151 to 153 °C.
As to `CC(C)NC(=O)Oc1ccc(-c2c(C#N)c3ccc(OC4CCOCC4)cc3n2C2CCC2)cc1` [Compound 2809], the melting point was in the range of 185 to 186 °C.
With `C[C@@H](OC(=O)Nc1ccc(-c2c(C#N)c3ccc(-c4ncccc4[N+](=O)[O-])cc3n2C2CCC2)cc1)C1CC1` [Compound 3247] the figure was 199 to 201 °C.
Under `C[C@@H](OC(=O)Nc1ccc(-c2c(C#N)c3cc(Oc4ncccn4)ccc3n2C2CCC2)cc1)C1CC1` [Compound 2996] stands 200 to 202 °C; under `COCCCNC(=O)c1ccc2c(C#N)c(-c3ccc(NC(=O)O[C@H](C)C4CC4)cc3)n(C3CCC3)c2c1` [Compound 2792], 90 to 94 °C; under `CCOc1ccc2c(F)c(-c3ccc(NC(=O)OC(C)C)cc3)n(CC3CC3)c2c1` [compound 2640, [4-(1-Cyclopropylmethyl-6-ethoxy-3-fluoro-1H-indol-2-yl)-phenyl]-carbamic acid isopropyl ester], 178 to 184 °C.
`CC(OC(=O)Nc1ccc(-c2c(C#N)c3ccc(OC4CCOC4)cc3n2C2CCC2)cc1)c1ccccc1` (stereo not drawn) [Compound 1456] gave a melting point of 183 to 184 °C.
As for `COCCOc1ccc2c(C#N)c(-c3ccc(NC(C4CC4)C4CC4)cc3)n(C(C)C)c2c1` [Compound 2671], the melting point lay in the range of 148 to 150 °C.
`CSc1nccc(Oc2ccc3c(C#N)c(-c4ccc(NC(=O)NC(C)C)cc4)n(C4CCC4)c3c2)n1` [Compound 3092] came in with a melting point of 238 to 243 °C.
For `CCC(C)C(C)OC(=O)Nc1ccc(-c2c(C#N)c3ccc(OC4CCOC4)cc3n2C2CCC2)cc1` (stereo not drawn) [Compound 1459], the melting point was 183 to 184 °C.
The compound `CSc1nccc(Oc2ccc3c(C#N)c(-c4ccc(NC(=O)OC(C)C)cc4)n(C4CCC4)c3c2)n1` [Compound 3090] showed a melting point of 196 to 201 °C.
Under `COCCOc1ccc2c(C#N)c(-c3ccc(NC(=O)OC(C)C(C)(C)C)cc3)n(C(C)C)c2c1` (stereo not drawn) [Compound 2670] stands 204 to 205 °C; under `C[C@@H](OC(=O)Nc1ccc(-c2c(C#N)c3ccc(OCCN4C(=O)CCC4=O)cc3n2C2CCC2)cc1)C1CC1` [Compound 3271], 80 to 83 °C.
With `C[C@@H](OC(=O)Nc1ccc(-c2c(C#N)c3cc(Oc4cnccn4)ccc3n2C2CCC2)cc1)C1CC1` [Compound 2995], the melting point was 206 to 208 °C.
In turn, `N#Cc1c(-c2ccc(NS(=O)(=O)C3CC3)cc2)n(C2CCC2)c2ccc(OC3COCOC3)cc12` [Compound 2775] came in with a melting point of 199 to 203 °C.
Turning to `C[C@@H](OC(=O)Nc1ccc(-c2c(C#N)c3ccc(OCCn4ccnc4)cc3n2C2CC2)cc1)c1ccc(F)cc1` [Compound 2828], the melting point is 225 to 230 °C.
With `CCCS(=O)(=O)Nc1ccc(-c2c(C#N)c3ccc(N4CCOCC4)cc3n2C2CCC2)cc1` [Compound 3013] the figure was 176 to 179 °C; with `N#Cc1c(-c2ccc(N(CCF)c3nc(C(F)(F)F)cs3)cc2)n(C2CCC2)c2cc(OCCF)ccc12` [Compound 3188], 137 to 138 °C.
Under `CCn1c(-c2ccc(N3CCCS3(=O)=O)cc2)c(C#N)c2ccc(OC3CCOCC3)cc21` [Compound 2940] stands 222 to 227 °C; under `CCCS(=O)(=O)Nc1ccc(-c2c(C#N)c3ccc(Oc4ncccc4C#N)cc3n2C2CCC2)c(F)c1` [Compound 3346], 113 to 116 °C.
Take `CC(C)OC(=O)Nc1c(F)cc(-c2c(C#N)c3ccc(Oc4ncccn4)cc3n2C2CCC2)cc1F` [Compound 3036]: the melting point lay within 144 to 154 °C.
As to `C[C@@H](OC(=O)Nc1ccc(-c2c(C#N)c3ccc(-c4cn(C)cn4)cc3n2C2CCC2)cc1)C1CC1` [Compound 3048], the melting point was 120 °C (dec.).
Consider `CCOc1ccc2c(C#N)c(-c3ccc(NC(=O)OC4CCN(C(=O)OC(C)(C)C)CC4)cc3)n(C3CCC3)c2c1` [Compound 3069], for which the melting point fell in the range of 207 to 211 °C.
For `CC(C)Nc1ccc(-c2c(C#N)c3ccc(Oc4ncccc4Cl)cc3n2C2CC2)cc1` [Compound 2951], the melting point lay within 196 to 197 °C.
`N#Cc1c(-c2ccc(NS(=O)(=O)C3CC3)cc2)n(C2CCC2)c2cc(N3CCCC3)ccc12` [Compound 2960]: the melting point lay in the range of 258 to 260 °C.
The compound `COCCOc1ccc2c(C#N)c(-c3ccc(C(=O)NC4CC4)cc3)n(C3CCC3)c2c1` [Compound 2760] displayed a melting point of 228 to 230 °C.

Usually melting point stands for the temperature, or range, at which the solid turns liquid.
